Five molecules from patent US12281149B2, “Modulators of G-protein coupled receptors” (priority 2021, dated 2025) can be followed below.

pEC50: −log10 of the molar value. *1 amine or outer side, *2 acyl side, *3 side chain or, on linkers, in order; H or OH if unused. Where a SMILES comes first, the peptide text is derived from it. Side-chain parts run from the residue outwards. [ ]: non-standard residue; d: D form. The star is where a group is joined. C20 diacid = O=C(O)CCCCCCCCCCCCCCCCCCC(=O)*; γGlu = O=C(O)[C@H](CCC(=O)[*:2])N[*:1]; X19 = O=C1COc2ccccc2N1CCNCCC(=O)*; X47 = O=C(CCNCc1cc(O)cc(Cl)c1)*; X50 = CC(C)(N*)c1ccc(F)c(F)c1; X8 = O=C(CCNCc1cc(O)cc(F)c1)*; Suc = O=C(CCC(=O)[*:2])[*:1]; AEEA = NCCOCCOCC(=O)O; Aib = CC(C)(N)C(=O)O; CO = O=C([*:1])[*:2]; βAla = NCCC(=O)O; NHPr = CCCN*

Common to all, as to format: cell-based
Assay [1] concerns the target T1, GLP-1 receptor (Homo sapiens, UniProt P43220). Description: PathHunter β-arrestin assay, GLP-1 receptor. Also on record: host or cells: PathHunter CHO-K1 GLP1R β-Arrestin Cell Line. The settings on record: β-arrestin-2 recruitment, PathHunter CHO-K1 GLP1R β-Arrestin Cell Line, 90 min at 37° C.; normalized to GLP-1; read-out: GLP-1R β Arrestin EC50. On the technique in general: Arrestin recruitment assays detect the binding of arrestin to an activated receptor.

The target of assay [2] is T1, GLP-1 receptor. Description: HitHunter cAMP assay, GLP-1 receptor. To be noted: for pEC50: CHO cells stably expressing human GLP-1 receptor, cAMP accumulation, 30 min, read-out: EC50 GLP-1R; for Emax: CHO cells, cAMP, normalized to maximum signal from GLP-1 (high) and DMSO (low), read-out: Emax GLP-1R. (cAMP levels reflect the balance of adenylyl cyclase and phosphodiesterase activity.)

In assay [3] the target is T2, GIP receptor (Homo sapiens, UniProt P48546).
T2 sequence (P48546 22-466): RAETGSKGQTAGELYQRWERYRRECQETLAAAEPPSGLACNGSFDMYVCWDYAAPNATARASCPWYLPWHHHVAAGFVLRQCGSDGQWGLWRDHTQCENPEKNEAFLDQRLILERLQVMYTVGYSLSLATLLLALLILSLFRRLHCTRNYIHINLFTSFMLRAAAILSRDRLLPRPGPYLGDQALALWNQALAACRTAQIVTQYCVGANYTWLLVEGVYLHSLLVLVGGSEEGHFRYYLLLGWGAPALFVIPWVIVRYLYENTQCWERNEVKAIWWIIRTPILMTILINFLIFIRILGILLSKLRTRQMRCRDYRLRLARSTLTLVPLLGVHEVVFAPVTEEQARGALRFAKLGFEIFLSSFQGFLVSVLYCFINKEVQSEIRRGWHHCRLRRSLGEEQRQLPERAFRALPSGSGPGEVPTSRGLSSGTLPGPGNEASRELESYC
Description: HitHunter cAMP assay, GIP receptor. The settings on record: for pEC50: CHO cells stably expressing GIP receptor, cAMP accumulation, 30 min, read-out: EC50 GIP-1R; for Emax: CHO cells, cAMP, normalized to maximum signal from GIP (high) and DMSO (low), read-out: Emax GIP-1R.

The target in assay [4] is T2, GIP receptor. Briefly: PathHunter β-arrestin assay, GIP receptor. Also noted: host or cells: PathHunter CHO-K1 GIPR β-Arrestin Cell Line. The settings on record: β-arrestin-2 recruitment, PathHunter CHO-K1 GIPR β-Arrestin Cell Line, 90 min at 37° C.; normalized to GIP; read-out: GIPR β Arrestin EC50.

T1 sequence (P43220 24-463): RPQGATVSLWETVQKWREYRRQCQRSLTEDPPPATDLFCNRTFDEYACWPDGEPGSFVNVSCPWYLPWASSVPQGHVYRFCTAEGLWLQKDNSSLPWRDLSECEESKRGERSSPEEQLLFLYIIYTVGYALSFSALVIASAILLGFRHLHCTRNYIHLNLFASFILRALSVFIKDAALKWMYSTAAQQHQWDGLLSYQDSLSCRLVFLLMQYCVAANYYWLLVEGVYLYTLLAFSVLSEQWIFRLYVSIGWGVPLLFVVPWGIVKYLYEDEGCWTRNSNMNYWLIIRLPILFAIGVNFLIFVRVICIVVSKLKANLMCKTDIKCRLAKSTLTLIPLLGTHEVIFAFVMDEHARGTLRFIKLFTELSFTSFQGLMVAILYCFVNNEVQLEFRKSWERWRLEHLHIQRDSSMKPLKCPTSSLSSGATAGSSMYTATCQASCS

With `CC[C@H](C)[C@H](NC(=O)[C@H](CC(C)C)NC(=O)[C@H](Cc1c[nH]c2ccccc12)NC(=O)[C@H](CCC(N)=O)NC(=O)[C@@H](NC(=O)[C@H](Cc1ccccc1)NC(=O)[C@H](C)NC(=O)[C@H](CCCCNC(=O)COCCOCCNC(=O)COCCOCCNC(=O)CC[C@H](NC(=O)CCCCCCCCCCCCCCCCCCC(=O)O)C(=O)O)NC(=O)[C@H](CCC(N)=O)NC(=O)[C@H](C)NC(=O)[C@@H](NC(=O)[C@H](CCCCN)NC(=O)[C@H](CC(=O)O)NC(=O)[C@H](CC(C)C)NC(=O)C(C)(C)NC(=O)[C@@H](NC(=O)[C@H](CO)NC(=O)[C@H](Cc1ccc(O)cc1)NC(=O)[C@H](CC(=O)O)NC(=O)[C@H](CO)NC(=O)[C@@H](NC(=O)[C@H](Cc1ccccc1)NC(=O)[C@@H](NC(=O)CNC(=O)[C@H](CCC(=O)O)NC(=O)CCNCc1cc(O)cc(Cl)c1)[C@@H](C)O)[C@@H](C)O)[C@@H](C)CC)[C@@H](C)CC)C(C)C)C(=O)N[C@@H](C)C(=O)NCC(=O)NCC(=O)N1CCC[C@H]1C(=O)N[C@@H](CO)C(=O)N[C@@H](CO)C(=O)NCC(=O)N[C@@H](C)C(=O)N1CCC[C@H]1C(=O)N1CCC[C@H]1C(=O)N1CCC[C@H]1C(=O)N[C@@H](CO)C(N)=O` [Compound 275] (X47-EGTFTSDYSI[Aib]LDKIAQK([AEEA-AEEA-γGlu-C20 diacid])AFVQWLIAGGPSSGAPPPS-NH2), the pEC50 on GLP-1 receptor [1] is under 6.00; at GLP-1 receptor [2], 8.00 to 9.00; at GIP receptor [3], 7.00 to 8.00; at GIP receptor [4] it was under 6.00. Also, the maximal response (Emax) at GLP-1 receptor [2] amounted to 99%; at GIP receptor [3], 17%.

For the molecule `CC[C@H](C)[C@H](NC(=O)[C@H](CC(C)C)NC(=O)[C@H](Cc1c[nH]c2ccccc12)NC(=O)[C@H](CCC(N)=O)NC(=O)[C@@H](NC(=O)[C@H](Cc1ccccc1)NC(=O)[C@H](C)NC(=O)[C@H](CCCCNC(=O)COCCOCCNC(=O)COCCOCCNC(=O)CC[C@H](NC(=O)CCCCCCCCCCCCCCCCCCC(=O)O)C(=O)O)NC(=O)[C@H](CCC(N)=O)NC(=O)[C@H](C)NC(=O)[C@@H](NC(=O)[C@H](CCCCN)NC(=O)[C@H](CC(=O)O)NC(=O)[C@H](CC(C)C)NC(=O)C(C)(C)NC(=O)[C@@H](NC(=O)[C@H](CO)NC(=O)[C@H](Cc1ccc(O)cc1)NC(=O)[C@H](CC(=O)O)NC(=O)[C@H](CO)NC(=O)[C@@H](NC(=O)[C@H](Cc1ccccc1)NC(=O)[C@@H](NC(=O)CNC(=O)[C@H](CCC(=O)O)NC(=O)CCNCCN1C(=O)COc2ccccc21)[C@@H](C)O)[C@@H](C)O)[C@@H](C)CC)[C@@H](C)CC)C(C)C)C(=O)N[C@@H](C)C(=O)NCC(=O)NCC(=O)N1CCC[C@H]1C(=O)N[C@@H](CO)C(=O)N[C@@H](CO)C(=O)NCC(=O)N[C@@H](C)C(=O)N1CCC[C@H]1C(=O)N1CCC[C@H]1C(=O)N1CCC[C@H]1C(=O)N[C@@H](CO)C(N)=O` [Compound 276] (X19-EGTFTSDYSI[Aib]LDKIAQK([AEEA-AEEA-γGlu-C20 diacid])AFVQWLIAGGPSSGAPPPS-NH2), the pEC50 at GLP-1 receptor [1] was under 6.00; on GLP-1 receptor [2], 7.00 to 8.00; at GIP receptor [3], 6.00 to 7.00; on GIP receptor [4] it was under 6.00. For the same molecule, the Emax at GLP-1 receptor [2] is 95%; on GIP receptor [3] it was 35%.

`CC[C@H](C)[C@H](NC(=O)[C@H](CC(C)C)NC(=O)[C@H](Cc1c[nH]c2ccccc12)NC(=O)[C@H](CCC(N)=O)NC(=O)[C@@H](NC(=O)[C@H](Cc1ccccc1)NC(=O)[C@H](C)NC(=O)[C@H](CCCCNC(=O)COCCOCCNC(=O)COCCOCCNC(=O)CC[C@H](NC(=O)CCCCCCCCCCCCCCCCCCC(=O)O)C(=O)O)NC(=O)[C@H](CCC(N)=O)NC(=O)[C@H](C)NC(=O)[C@@H](NC(=O)[C@H](CCCCN)NC(=O)[C@H](CC(=O)O)NC(=O)[C@H](CC(C)C)NC(=O)C(C)(C)NC(=O)[C@@H](NC(=O)[C@H](CO)NC(=O)[C@H](Cc1ccc(O)cc1)NC(=O)[C@H](CC(=O)O)NC(=O)[C@H](CO)NC(=O)[C@@H](NC(=O)[C@H](Cc1ccccc1)NC(=O)[C@@H](NC(=O)CNC(=O)[C@H](CCC(=O)O)NC(=O)CCNCc1cc(O)cc(F)c1)[C@@H](C)O)[C@@H](C)O)[C@@H](C)CC)[C@@H](C)CC)C(C)C)C(=O)N[C@@H](C)C(=O)NCC(=O)NCC(=O)N1CCC[C@H]1C(=O)N[C@@H](CO)C(=O)N[C@@H](CO)C(=O)NCC(=O)N[C@@H](C)C(=O)N1CCC[C@H]1C(=O)N1CCC[C@H]1C(=O)N1CCC[C@H]1C(=O)N[C@@H](CO)C(N)=O` [Compound 277] (X8-EGTFTSDYSI[Aib]LDKIAQK([AEEA-AEEA-γGlu-C20 diacid])AFVQWLIAGGPSSGAPPPS-NH2): the pEC50 is under 6.00 at GLP-1 receptor [1], 8.00 to 9.00 on GLP-1 receptor [2], 6.00 to 7.00 on GIP receptor [3] and under 6.00 at GIP receptor [4]. The Emax was 89% on GLP-1 receptor [2] and 6% on GIP receptor [3].

Turning to `CC[C@H](C)[C@H](NC(=O)[C@H](CC(C)C)NC(=O)[C@H](Cc1c[nH]c2ccccc12)NC(=O)[C@H](CCC(N)=O)NC(=O)[C@@H](NC(=O)[C@H](Cc1ccccc1)NC(=O)[C@H](C)NC(=O)[C@H](CCCCNC(=O)COCCOCCNC(=O)COCCOCCNC(=O)CC[C@H](NC(=O)CCCCCCCCCCCCCCCCCCC(=O)O)C(=O)O)NC(=O)[C@H](CCC(N)=O)NC(=O)[C@H](C)NC(=O)[C@@H](NC(=O)[C@H](CCCCN)NC(=O)[C@H](CC(=O)O)NC(=O)[C@H](CC(C)C)NC(=O)C(C)(C)NC(=O)[C@@H](NC(=O)[C@H](CO)NC(=O)[C@H](Cc1ccc(O)cc1)NC(=O)[C@H](CC(=O)O)NC(=O)[C@H](CO)NC(=O)[C@@H](NC(=O)[C@H](Cc1ccccc1)NC(=O)[C@@H](NC(=O)CNC(=O)[C@H](CCC(=O)O)NC(=O)CCC(=O)NC(C)(C)c1ccc(F)c(F)c1)[C@@H](C)O)[C@@H](C)O)[C@@H](C)CC)[C@@H](C)CC)C(C)C)C(=O)N[C@@H](C)C(=O)NCC(=O)NCC(=O)N1CCC[C@H]1C(=O)N[C@@H](CO)C(=O)N[C@@H](CO)C(=O)NCC(=O)N[C@@H](C)C(=O)N1CCC[C@H]1C(=O)N1CCC[C@H]1C(=O)N1CCC[C@H]1C(=O)N[C@@H](CO)C(N)=O` [Compound 280] ({X50-Suc}-EGTFTSDYSI[Aib]LDKIAQK([AEEA-AEEA-γGlu-C20 diacid])AFVQWLIAGGPSSGAPPPS-NH2), the pEC50 on GLP-1 receptor [1] is under 6.00; on GLP-1 receptor [2] it was 8.00 to 9.00; on GIP receptor [3] it was 8.00 to 9.00; on GIP receptor [4], under 6.00. The maximum response (Emax) at GLP-1 receptor [2] came out at 90%; at GIP receptor [3], 114%.

`CCCNC(=O)NC(C)(C)C(=O)NCCC(=O)N[C@@H](CCC(=O)O)C(=O)NCC(=O)N[C@H](C(=O)N[C@@H](Cc1ccccc1)C(=O)N[C@H](C(=O)N[C@@H](CO)C(=O)N[C@@H](CC(=O)O)C(=O)N[C@@H](Cc1ccc(O)cc1)C(=O)N[C@@H](CO)C(=O)N[C@H](C(=O)NC(C)(C)C(=O)N[C@@H](CC(C)C)C(=O)N[C@@H](CC(=O)O)C(=O)N[C@@H](CCCCN)C(=O)N[C@H](C(=O)N[C@@H](C)C(=O)N[C@@H](CCC(N)=O)C(=O)N[C@@H](CCCCNC(=O)COCCOCCNC(=O)COCCOCCNC(=O)CC[C@H](NC(=O)CCCCCCCCCCCCCCCCCCC(=O)O)C(=O)O)C(=O)N[C@@H](C)C(=O)N[C@@H](Cc1ccccc1)C(=O)N[C@H](C(=O)N[C@@H](CCC(N)=O)C(=O)N[C@@H](Cc1c[nH]c2ccccc12)C(=O)N[C@@H](CC(C)C)C(=O)N[C@H](C(=O)N[C@@H](C)C(=O)NCC(=O)NCC(=O)N1CCC[C@H]1C(=O)N[C@@H](CO)C(=O)N[C@@H](CO)C(=O)NCC(=O)N[C@@H](C)C(=O)N1CCC[C@H]1C(=O)N1CCC[C@H]1C(=O)N1CCC[C@H]1C(=O)N[C@@H](CO)C(N)=O)[C@@H](C)CC)C(C)C)[C@@H](C)CC)[C@@H](C)CC)[C@@H](C)O)[C@@H](C)O` [Compound 281] ({NHPr-CO}-[Aib][βAla]EGTFTSDYSI[Aib]LDKIAQK([AEEA-AEEA-γGlu-C20 diacid])AFVQWLIAGGPSSGAPPPS-NH2): the pEC50 at GLP-1 receptor [1] was under 6.00; on GLP-1 receptor [2], 9.00 to 10.00; on GIP receptor [3], 8.00 to 9.00; at GIP receptor [4] it was under 6.00. Moreover, the Emax on GLP-1 receptor [2] is 95%; at GIP receptor [3], 108%.

What is called pEC50 is the negative decadic logarithm of the EC50, by convention in mol/L. As usually defined, the Emax is the size of the effect at its maximum, as opposed to the concentration needed.
